Results reported in patent publication US20030078272A1, “Methods of use of fluoroquinolone compounds against ciprofloxacin-resistant and ciprofloxacin-sensitive pathogenic bacteria” (SmithKline Beecham Corporation, priority 1999, published 2003).
Converted amounts (≈) assume the structure as drawn. Where two headings read alike, the source gives them in different places.

Legend:
Format in all cases: cell-based, Streptococcus pneumoniae
pneumococci [1] = experiment: Agar dilution MICs; conditions: for MIC50 / MIC90: Streptococcus pneumoniae
Method: (§1) Cultures were maintained at −70° C. in double-strength skim milk (Difco Laboratories, Detroit, Mich.). Gemifloxacin susceptibility powder, disks and E-tests (AB Biodisk, Solna, Sweden) were obtained from SmithKline Beecham Laboratories, Collegeville, Pa., USA.
(§2) These were performed (Jacobs, et al., Clin. Infect. Dis. 15:119-127, 1992 and Clark, et al., J. Clin. Microbiol. 36:3579-3584, 1998) on Mueller-Hinton agar supplemented with 5% sheep blood, incorporating compounds at concentrations from 0.002-8 μg/ml in doubling dilutions. Inocula were prepared by suspending growth from overnight cultures in Mueller-Hinton broth to a turbidity of a 0.5 McFarland standard. Final inocula contained 10^4 organisms/spot. Plates were inoculated with a Steers replicator with 3 mm inoculating pins, and incubated overnight at 35° C. in ambient air. The lowest concentration of antibiotic showing no growth was read as the MIC. Quality control strains—Staphylococcus aureus […] and Streptococcus pneumoniae ATCC 49619—were included in each run.

pneumococci [2] = experiment: MIC testing, all methods together (agar dilution, microdilution, E-test); conditions: agar dilution and microdilution in air, E-test in air and CO2, all strains
Method: as §2
(§3) These were determined by the method recommended by the NCCLS, (Methods for Dilution Antimicrobial Susceptibility Tests for Bacteria that Grow Aerobically, 4th Edition, NCCLS, Villanova, Pa., 1997) using cation-adjusted Mueller-Hinton broth (Difco Laboratories) supplemented with 5% lysed defibrinated horse blood. Trays were prepared in-house. Suspensions with a turbidity equivalent to that of a 0.5 McFarland standard were prepared by suspending growth from blood agar plates in 2 ml Mueller-Hinton broth. Suspensions were further diluted 1:10 to obtain a final inoculum (10 μL) containing 5×10^5 CFU/mL. Trays were incubated 20-24 hours in ambient air at 35° C. Standard quality control strains (as above) were included in each run.
(§4) Standard methodology was used (Clark, et al., J. Clin. Microbiol. 36:3579-3584, 1998). Mueller-Hinton plates supplemented with 5% sheep blood (BBL Microbiology Systems, Cockeysville, Md., USA) were inoculated with a 0.5 McFarland suspension harvested from plates, and E-test strips (AB Biodisk, Solna, Sweden) placed on each. After overnight incubation at 35° C., the MIC was read as the intersect where the ellipse of growth inhibition intersects the strip. E-test MICs were performed both in air and in CO2. E-test MICs were rounded up to the next highest doubling dilution.

pneumococci [3] = experiment: Disk diffusion, 5 μg gemifloxacin disks; conditions: for zone of inhibition at 5 µg/disc: Streptococcus pneumoniae, 5 μg disk, read-out: zone diameter
Method: as §1
This was by standard NCCLS methodology (Performance Standards for Antimicrobial Disk Susceptibility Tests, 6th Edition, NCCLS, Villanova, Pa., 1997) using 5 μg gemifloxacin disks (BBL) and Mueller-Hinton plates supplemented with 5% sheep blood (BBL), inoculated with a 0.5 McFarland suspension. After overnight incubation in both air and 5% CO2 at 35° C., zone diameters were measured with calipers.

pneumococci [4] = experiment: Microdilution MICs (NCCLS); conditions: microdilution (air), 200 strains
Method: as §3, with “Cultures were maintained at −70° C. in double-strength skim milk (Difco Laboratories, Detroit, Mich.). Gemifloxacin susceptibility powder, disks and E-tests (AB Biodisk, Solna, Sweden) were obtained from SmithKline Beecham Laboratories, Collegeville, Pa., USA. These” for “These”

pneumococci [5] = experiment: E-test MICs; conditions: 200 strains
Method: as §4, with “Cultures were maintained at −70° C. in double-strength skim milk (Difco Laboratories, Detroit, Mich.). Gemifloxacin susceptibility powder, disks and E-tests (AB Biodisk, Solna, Sweden) were obtained from SmithKline Beecham Laboratories, Collegeville, Pa., USA. Standard” for “Standard”

[6] = agar dilution (air), all 200 strains
[7] = agar dilution, 39 ciprofloxacin-resistant strains (ciprofloxacin MIC ≧8.0 μg/ml)
[8] = agar dilution, 161 ciprofloxacin-susceptible strains (ciprofloxacin MIC ≦4.0 μg/ml)

Q: For `CO/N=C1\CN(c2nc3c(cc2F)c(=O)c(C(=O)O)cn3C2CC2)CC1CN` (racemic) [Gemifloxacin, (R,S)-7-(3-aminomethyl-4-methoxyiminopyrrolidin-1-yl)-1-cyclopropyl-6-fluoro-4-oxo-1,4-dihydro-1,8-naphthyridine-3-carboxylic acid], which MIC50 (pneumococci [1]; [6]) is on record?
A: 0.03 µg/mL (≈ 0.077 µM)

Q: And the MIC90 (pneumococci [1]; [6])?
A: 0.25 µg/mL (≈ 0.642 µM)

Q: What about the MIC50 (pneumococci [1]; [7]) of the same compound?
A: 0.25 µg/mL (≈ 0.642 µM)

Q: What about the MIC90 (pneumococci [1]; [7]) of the same compound?
A: 0.5 µg/mL (≈ 1.28 µM)

Q: And the MIC50 (pneumococci [1]; [8])?
A: 0.03 µg/mL (≈ 0.077 µM)

Q: And the MIC90 (pneumococci [1]; [8])?
A: 0.03 µg/mL (≈ 0.077 µM)

Q: And the MIC range (pneumococci [1]; [6])?
A: 0.004 to 1.0 µg/mL

Q: And the MIC range (pneumococci [1]; agar dilution (air), all 200 strains, listed as gemifloxacin)?
A: 0.004 to 1 µg/mL

Q: What about the “MIC range” value (pneumococci [1]; [7]) of the same compound?
A: 0.03 to 1 µg/mL

Q: And the “MIC range” value (pneumococci [1]; agar dilution, 39 ciprofloxacin-resistant strains (ciprofloxacin MIC ≧8.0 μg/ml), listed as gemifloxacin)?
A: 0.03 to 1.0 µg/mL

Q: What about the “MIC range” value (pneumococci [1]; [8]) of the same compound?
A: 0.004 to 0.06 µg/mL

Q: What about the “MIC50s, range over methods” value (pneumococci [2]) of the same compound?
A: 0.016 to 0.03 µg/mL

Q: And the “MIC90s, range over methods” value (pneumococci [2])?
A: 0.125 to 0.25 µg/mL

Q: And the “MIC range over all methods” value (pneumococci [2])?
A: 0.004 to 1.0 µg/mL

Q: What about the zone of inhibition at 5 µg/disc (pneumococci [3]; in CO2, ciprofloxacin-resistant strains, full range) of the same compound?
A: 18 to 31 mm

Q: What about the zone of inhibition at 5 µg/disc (pneumococci [3]; in CO2, ciprofloxacin-resistant strains, most strains) of the same compound?
A: 21 to 26 mm

Q: What about the zone of inhibition at 5 µg/disc (pneumococci [3]; in air, quinolone-resistant strains, most strains) of the same compound?
A: < 31 mm

Q: What about the zone of inhibition at 5 µg/disc (pneumococci [3]; incubated in CO2, all ciprofloxacin-susceptible strains) of the same compound?
A: ≥ 26 mm

Q: What about the zone of inhibition at 5 µg/disc (pneumococci [3]; incubated in air, quinolone-susceptible strains) of the same compound?
A: ≥ 28 mm

Q: What about the zone diameter (pneumococci [3]; most quinolone-susceptible strains) of the same compound?
A: > 25 mm

Q: And the “zone diameter in air wider than in CO2” value (pneumococci [3]; most strains, air versus CO2)?
A: 1-3 mm

Q: What about the MIC50 (pneumococci [4]; Streptococcus pneumoniae) of the same compound?
A: 0.016 µg/mL (≈ 0.0411 µM)

Q: What about the MIC90 (pneumococci [4]; Streptococcus pneumoniae) of the same compound?
A: 0.125 µg/mL (≈ 0.321 µM)

Q: What about the MIC range (pneumococci [4]) of the same compound?
A: 0.004 to 0.5 µg/mL

Q: And the MIC50 (pneumococci [5]; E-test (CO2))?
A: 0.016 µg/mL (≈ 0.0411 µM)

Q: And the MIC range (pneumococci [5]; E-test (CO2))?
A: 0.008 to 0.5 µg/mL

Q: And the MIC range (pneumococci [5]; E-test (CO2), listed as gemifloxacin)?
A: 0.00 to 0.5 µg/mL

Q: What about the MIC range (pneumococci [5]; E-test (air)) of the same compound?
A: 0.008 to 0.5 µg/mL

Q: What about the MIC90 (pneumococci [5]; Streptococcus pneumoniae, E-test (CO2)) of the same compound?
A: 0.25 µg/mL (≈ 0.642 µM)

Q: What about the MIC90 (pneumococci [5]; Streptococcus pneumoniae, E-test (air)) of the same compound?
A: 0.125 µg/mL (≈ 0.321 µM)

Q: What about the MIC50 (pneumococci [5]; Streptococcus pneumoniae, E-test (air), read-out: MIC50) of the same compound?
A: 0.016 µg/mL (≈ 0.0411 µM)
